From patent US10968457B2, “Drug-inducible promoter and method of inducting gene expression using the same” (TOYOTA JIDOSHA KABUSHIKI KAISHA, priority 2015, dated 2021)

Experiments:
sugarcane variety Q165 = test: RNAseq expression analysis of leaves before and after probenazole treatment; assay type: in vivo; settings: 8% Oryzemate granules, 20 g/4 liters of soil, about 60 days after planting, selected gene
Source text: In Example 1, at the outset, a sugarcane variety Q165 was subjected to drug treatment with probenazole (8% Oryzemate granules, Meiji Seika Pharma Co., Ltd., 20 g/4 liters of soil) approximately 60 days after it had been planted. The leaves that had expanded from the top were sampled before and after the treatment, and total RNA was extracted using the RNeasy Plant Mini Kit (QIAGEN).
Subsequently, the obtained total RNA was subjected to RNAseq expression analysis (Illumina HiSeq Sequencing, both-ends analysis), so as to obtain read data set. With the use of the assembler (Velvet version 1.2.08), the read data were reassembled into contig sequence information. The contig sequence information resulting from such reassembly was compared with each RNA sequence, and mapping data were obtained using a mapping program (Bowtie version 1.0.0). The resulting data were designated as the original data for RNAseq analysis.
On the basis of the EST sequence, two types of gene expression regulatory DNAs located in the 5′ upstream region of the selected gene were obtained by the Straight Walk method developed by BEX Co., Ltd. Such gene expression regulatory DNAs are drug-inducible promoters whose transcription activity is activated in the presence of a drug, such as probenazole. […]

[1] = system: drug-inducible promoters, tp1 and tp2; test: Real-time PCR of RNA levels in recombinants carrying tp1 or tp2 expression vectors, with and without probenazole treatment; assay type: in vivo, sugarcane variety Q165; settings: Recombinants 1 to 8; Oryzemate granules (8% probenazole), 20 g/4 liters of soil; leaves sampled 0, 7 and 14 days after treatment; FIG. 7
Description: In Example 2, transcription promoting activity of the two types of drug-inducible promoters, tp1 and tp2, isolated in Example 1 was examined in the presence and in the absence of probenazole.
With the use of the tp1-carrying expression vector and the tp2-carrying expression vector constructed in the manner described above, Recombinants 1 to 8 were prepared. Recombinants 1 to 7 were prepared with the use of the tp1-carrying expression vector, and Recombinant 8 was prepared with the use of the tp2-carrying expression vector.
Recombinants 1 to 8 prepared in the manner described above were treated with Oryzemate granules (8% probenazole, Meiji Seika Pharma Co., Ltd., 20 g/4 liters of soil), and leaves were sampled therefrom 0 days after drug treatment (i.e., immediately before the treatment), 7 days after drug treatment, and 14 days after drug treatment. The RNA levels of the recombinants were quantified using the AB17500 real-time PCR apparatus (Applied BioSystems) in accordance with the SYBR Green method. A comparative example shown in FIG. 7 concerns a recombinant prepared with the use of ecc0002-Hd3a-pIG121-Hm. The control example shown in FIG. 7 concerns the Q165 wild-type sugarcane variety.

## C=CCOC1=NS(=O)(=O)c2ccccc21 [probenazole]
Sugarcane variety Q165
  increase in expression levels of EST sequence, drug treatment group versus non-treatment group: ≥ 100 fold
[1]
  degree of gene expression induction: ≥ 3 times
